{
  "source": "patent US10561676B2",
  "about": "“Method for treating cancer using dual antagonists of CXCR1 and CXCR2” (Syntrix Biosystems, Inc., priority 2018, dated 2020)",
  "key": {"[1]": {"test": "Stability in human liver microsomes (NADPH-dependent)", "assay_type": "in vitro ADME", "details": "37° C., NADPH-dependent", "experimental": "The compounds were incubated in duplicate with human liver microsomes at 37° C. The reaction contained microsomal protein in 100 mM potassium phosphate, 2 mM NADPH, 3 mM MgCl2, pH 7.4. A control was run for each compound omitting NADPH to detect NADPH-independent degradation. An aliquot was removed from each experimental and control reaction at 0, 10, 20, 30, and 60 minutes and mixed with an equal volume of ice-cold Stop Solution (0.3% acetic acid in acetonitrile containing haloperidol, diclofenac, or other internal standard). Stopped reactions were incubated for at least ten minutes at −20° C., and an additional volume of water was added. The samples were centrifuged to remove precipitated protein, and the supernatants were analyzed by LCMS/MS to quantitate the remaining compound. Data were converted to percent remaining by dividing by the time zero concentration value. Data were fit to a first-order decay model to determine half-life. Intrinsic clearance was calculated from the half-life and the protein concentrations: CLint=ln(2)/(t½[microsomal protein]). […] More surprising is that eliminating the ring nitrogen in SX-517 yielded a half-life even larger than that of SX-682. The results as a whole led to no SAR predictive of the surprising stability of SX-682."}, "neutrophils": {"test_system": "neutrophils", "test": "Murine air-pouch model of inflammation", "assay_type": "in vivo", "details": "depending on the dose given"}, "[2]": {"test": "Stability in human plasma", "assay_type": "in vitro ADME", "details": "for t½: 5 μM, 37° C., LC-MS/MS detection", "experimental": "The in vitro stability of SX-682 and the congeners of Metabolic Stability Example 1 (FIG. 6) were further studied in human plasma. The reactions were initiated by the addition of 5 μl of a 500 μM DMSO stock solution to 495 μl of preheated plasma solution to yield a final concentration of 5 μM. The assays were performed in a heat block at 37° C. and conducted in duplicate. Samples (50 μl) were taken at 0, 30, 60, 120, 240 min and added to 150 μL acetonitrile in order to deproteinize the plasma. The samples were subjected to vortex mixing for 1 min and then centrifugation for 15 min at 14,000 rpm. The clear supernatants were analyzed by LC-MS.\nThe in vitro plasma half-life (t½) was calculated using the expression t½=ln(2)/b where b is the slope found in the linear fit of the natural logarithm of the fraction remaining of the parent compound vs. incubation time."}, "Sprague-Dawley rats": {"test_system": "Sprague-Dawley rats", "test": "Ozone rat model of pulmonary inflammation (neutrophil influx into BALF)", "assay_type": "in vivo", "details": "1 mg/kg i.v. once, 1 ppm ozone 4 hours, BALF at 24 hours", "experimental": "SX-682 was assayed in an in vivo rat model of pulmonary inflammation. Activity in this model of pulmonary inflammation provides evidence that supports the use of SX-682 in the treatment of a number of pulmonary inflammatory diseases, including chronic obstructive pulmonary disease (COPD) and bronchopulmonary dysplasia (BPD). In this experiment, Sprague-Dawley rats (n=4 per cohort) were dosed intravenously only once at t=0 with either vehicle control (dimethylformamide/PEG400/saline, 40:40:20), positive inhibitor control (SX-576, 1 mg/kg) or the test compound (SX-682, 1 mg/kg). The rats were then placed in air (negative exposure group; vehicle control only) or 1 ppm ozone (positive exposure group; vehicle control, positive inhibitor control SX-576, and test compound SX-682) for 4 hours. The rats were then sacrificed at t=24 hours, and the bronchoalveolar lavage fluid (BALF) was collected. The cells were spun down, stained with Wright-Giemsa and counted. In the negative exposure group, no neutrophils were observed when stained. In the ozone exposed rats treated with vehicle however, there was a brisk influx of neutrophils of approximately 14,000 per mL of BALF (FIG. 5)."}, "[3]": {"test_system": "C3Tag mouse model of breast cancer", "test": "C3Tag mouse model of breast cancer", "assay_type": "in vivo", "details": "SX-682 10 mg/day/mouse oral; carboplatin 50 mg/kg weekly i.p.; vehicle 18 days", "from_the_text": "The C31-T-antigen (C3Tag) mouse model is a validated model of human triple-negative basal cell breast cancer as shown by gene expression analysis (Maroulakou, 1994, Proc Natl Acad Sci, 91:11236-40, herein incorporated by reference). The expressed large T-antigen binds and inactivates the RB and p53 tumor suppressor genes, explaining why this model faithfully recapitulates human basal breast cancer, which also harbors RB and p53 inactivation. This model also has frequent K-Ras amplification and infrequent Ras mutations. Treatment regimens were started following tumor manifestation. SX-682 was given orally via medicated feed, at an approximate dose of 10 mg/day/mouse. CP was administered once weekly via intraperitoneal injection at a dose of 50 mg/kg."}},
  "data": [
    {"smiles": "O=C(Nc1ccc(F)cc1)c1ccc(SCc2ccccc2B(O)O)nc1", "note": "[SX-517]", "values": [
      {"measurement": "t½, half-life", "setting": "[1]", "result": 6.75, "unit": "h"},
      {"measurement": "activity on neutrophils", "setting": "neutrophils", "result": "both inhibitory and agonist activity on neutrophils were achieved"},
      {"measurement": "t½", "setting": "[2]", "result": 1.88, "unit": "h"},
      {"measurement": "reduction in plasma half-life", "setting": "[2]; relative to SX-682/SX-576", "result": 5, "unit": "fold"}
    ]},
    {"smiles": "O=C(Nc1ccc(F)cc1)c1ccc(SCc2cc(OC(F)(F)F)ccc2B(O)O)nc1", "note": "[SX-576]", "values": [
      {"measurement": "t½, half-life", "setting": "[1]", "result": 0.833, "unit": "h"},
      {"measurement": "activity on neutrophils", "setting": "neutrophils", "result": "both inhibitory and agonist activity on neutrophils were achieved"},
      {"measurement": "t½", "setting": "[2]", "result": 8.88, "unit": "h"},
      {"measurement": "influx of neutrophils into the lungs (BALF) vs vehicle", "setting": "Sprague-Dawley rats", "result": "significantly decreased the influx of neutrophils"}
    ]},
    {"smiles": "N.N.O=C([O-])C1(C(=O)[O-])CCC1.[Pt+2]", "note": "[carboplatin, reference compound]", "values": [
      {"measurement": "median survival, single agent", "setting": "[3]", "result": 28, "unit": "days"}
    ]}
  ]
}
